Results reported in PubChem BioAssay AID1963446 (Molecular Pharmacology Branch, DTP, NCI, 2024).
“And” between values parts separate entries of the source, which are not always exact repeats. Equal values may be shown once. One block for each compound: values may come before it.

Tested on: 993429-296-R-J1-PDC complex spheroid growth, percent test/control
Assay: Anticancer human tumor 993429-296-R-J1-PDC patient-derived uterine sarcoma cell line growth inhibition [Asc]
Conditions: for viability, T/C: stronger effect = lower value
Outline: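 Tumor cells were grown as multicellular spheroids with stromal HUVEC and mesenchymal stem cells and treated singly or in combination. Concentrations fell in half-log steps from the clinical Cmax, or from 10 microM where none was known.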

[1] = curve of first compound, second compound 0.03 µM
[2] = curve of first compound, second compound 0.0949 µM
[3] = curve of first compound, second compound 0.3 µM
[4] = curve of first compound, second compound 0.949 µM
[5] = curve of first compound, second compound 3 µM
[6] = second compound 0.03 µM, first compound 0.0316 µM
[7] = second compound 0.03 µM, first compound 0.1 µM
[8] = second compound 0.03 µM, first compound 0.316 µM
[9] = second compound 0.03 µM, first compound 1 µM
[10] = second compound 0.0949 µM, first compound 0.0316 µM
[11] = second compound 0.0949 µM, first compound 0.1 µM
[12] = second compound 0.0949 µM, first compound 0.316 µM
[13] = second compound 0.0949 µM, first compound 1 µM
[14] = second compound 0.3 µM, first compound 0.0316 µM
[15] = second compound 0.3 µM, first compound 0.1 µM
[16] = second compound 0.3 µM, first compound 0.316 µM
[17] = second compound 0.3 µM, first compound 1 µM
[18] = second compound 0.949 µM, first compound 0.0316 µM
[19] = second compound 0.949 µM, first compound 0.1 µM
[20] = second compound 0.949 µM, first compound 0.316 µM
[21] = second compound 0.949 µM, first compound 1 µM
[22] = second compound 3 µM, first compound 0.0316 µM
[23] = second compound 3 µM, first compound 0.1 µM
[24] = second compound 3 µM, first compound 0.316 µM
[25] = second compound 3 µM, first compound 1 µM
[26] = curve of first compound, second compound 0.1 µM
[27] = curve of first compound, second compound 0.316 µM
[28] = curve of first compound, second compound 1 µM
[29] = curve of first compound, second compound 3.16 µM
[30] = curve of first compound, second compound 10 µM
[31] = second compound 0.1 µM, first compound 0.0316 µM
[32] = second compound 0.1 µM, first compound 0.1 µM
[33] = second compound 0.1 µM, first compound 0.316 µM
[34] = second compound 0.1 µM, first compound 1 µM
[35] = second compound 0.316 µM, first compound 0.0316 µM
[36] = second compound 0.316 µM, first compound 0.1 µM
[37] = second compound 0.316 µM, first compound 0.316 µM
[38] = second compound 0.316 µM, first compound 1 µM
[39] = second compound 1 µM, first compound 0.0316 µM
[40] = second compound 1 µM, first compound 0.1 µM
[41] = second compound 1 µM, first compound 0.316 µM
[42] = second compound 1 µM, first compound 1 µM
[43] = second compound 3.16 µM, first compound 0.0316 µM
[44] = second compound 3.16 µM, first compound 0.1 µM
[45] = second compound 3.16 µM, first compound 0.316 µM
[46] = second compound 3.16 µM, first compound 1 µM
[47] = second compound 10 µM, first compound 0.0316 µM
[48] = second compound 10 µM, first compound 0.1 µM
[49] = second compound 10 µM, first compound 0.316 µM
[50] = second compound 10 µM, first compound 1 µM
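Note: spheroids exposed to compounds for seven days.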

Compound: C#Cc1c(F)ccc2cc(O)cc(-c3ncc4c(N5CC6CCC(C5)N6)nc(OCC56CCCN5CC(F)C6)nc4c3F)c12 (configuration not stated) + CCN1C(C(=O)NC23CCC(C(=O)O)(CC2)CC3)C(c2cccc(Cl)c2F)C2(C(=O)Nc3cc(Cl)ccc32)C12CCCCC2
IC50 [1]: 5140 nM
IC50 [2]: 5400 nM
IC50 [3]: 5550 nM
IC50 [4]: 5320 nM
IC50 [5]: 4940 nM
viability, T/C [6]: 93.3%
viability, T/C [7]: 96.5%
viability, T/C [8]: 106%
viability, T/C [9]: 84%
viability, T/C (second compound 0.03 µM, first compound 3.16 µM): 86.3%
viability, T/C (second compound 0.03 µM, first compound 10 µM): 2.52%
viability, T/C [10]: 96.1%
viability, T/C [11]: 95.4%
viability, T/C [12]: 83.8%
viability, T/C [13]: 115%
viability, T/C (second compound 0.0949 µM, first compound 3.16 µM): 86.2%
viability, T/C (second compound 0.0949 µM, first compound 10 µM): 8.51%
viability, T/C [14]: 87.8%
viability, T/C [15]: 95.3%
viability, T/C [16]: 90.3%
viability, T/C [17]: 117%
viability, T/C (second compound 0.3 µM, first compound 3.16 µM): 92.2%
viability, T/C (second compound 0.3 µM, first compound 10 µM): 5.39%
viability, T/C [18]: 104%
viability, T/C [19]: 98.5%
viability, T/C [20]: 107%
viability, T/C [21]: 98.5%
viability, T/C (second compound 0.949 µM, first compound 3.16 µM): 89.8%
viability, T/C (second compound 0.949 µM, first compound 10 µM): 1.38%
viability, T/C [22]: 100%
viability, T/C [23]: 96.7%
viability, T/C [24]: 96.6%
viability, T/C [25]: 109%
viability, T/C (second compound 3 µM, first compound 3.16 µM): 73.5%
viability, T/C (second compound 3 µM, first compound 10 µM): 12.8%

Compound: C=CC(=O)N1CCN(c2nc(=O)n(-c3c(C)ccnc3C(C)C)c3nc(-c4c(O)cccc4F)c(F)cc23)C(C)C1 (configuration not stated) + Cc1c(S(C)(=O)=O)c(-c2cc(F)cc(N3CCN(c4ccc(NS(=O)(=O)c5ccc(NC(CCN6CCC(C(=O)OCCCP(=O)(O)O)CC6)CSc6ccccc6)c(S(=O)(=O)C(F)(F)F)c5)cc4)CC3)c2)c(-c2ccc(Cl)cc2)n1C(C)C
IC50 [26]: > 10000 nM
IC50 [27]: 4920 nM
IC50 [28]: 4340 nM
IC50 [29]: 524 nM
IC50 [30]: 5690 nM
viability, T/C [31]: 83.5%
viability, T/C [32]: 81.1%
viability, T/C [33]: 91.9%
viability, T/C [34]: 75.1%
viability, T/C (second compound 0.1 µM, first compound 3.16 µM): 76.5%
viability, T/C (second compound 0.1 µM, first compound 10 µM): 54.6%
viability, T/C [35]: 79%
viability, T/C [36]: 80.6%
viability, T/C [37]: 69.2%
viability, T/C [38]: 75%
viability, T/C (second compound 0.316 µM, first compound 3.16 µM): 62.3%
viability, T/C (second compound 0.316 µM, first compound 10 µM): 30.5%
viability, T/C [39]: 62.9%
viability, T/C [40]: 53.5%
viability, T/C [41]: 76.8%
viability, T/C [42]: 62.1%
viability, T/C (second compound 1 µM, first compound 3.16 µM): 47.3%
viability, T/C (second compound 1 µM, first compound 10 µM): 41.8%
viability, T/C [43]: 51.1%
viability, T/C [44]: 59.9%
viability, T/C [45]: 54.4%
viability, T/C [46]: 43.8%
viability, T/C (second compound 3.16 µM, first compound 3.16 µM): 34.9%
viability, T/C (second compound 3.16 µM, first compound 10 µM): 45.9%
viability, T/C [47]: 106%
viability, T/C [48]: 81%
viability, T/C [49]: 86.6%
viability, T/C [50]: 86.1%
viability, T/C (second compound 10 µM, first compound 3.16 µM): 64.7%
viability, T/C (second compound 10 µM, first compound 10 µM): 34.9%

Compound: COc1c(OCCCN2CCOCC2)ccc2c3n(c(=NC(=O)c4cnc(N)nc4)nc12)CCN3 + CCN1C(C(=O)NC23CCC(C(=O)O)(CC2)CC3)C(c2cccc(Cl)c2F)C2(C(=O)Nc3cc(Cl)ccc32)C12CCCCC2
IC50 [1]: 24.5 nM
IC50 [2]: 26.1 nM
IC50 [3]: 23.5 nM
IC50 [4]: 29.1 nM
IC50 [5]: 21.8 nM
viability, T/C (second compound 0.03 µM, first compound 0.00316 µM): 94.7%
viability, T/C (second compound 0.03 µM, first compound 0.01 µM): 84.8%
viability, T/C [6]: 40.2%
viability, T/C [7]: 6.36%
viability, T/C [8]: 4.17%
viability, T/C [9]: 1.31%
viability, T/C (second compound 0.0949 µM, first compound 0.00316 µM): 82.9%
viability, T/C (second compound 0.0949 µM, first compound 0.01 µM): 86.2%
viability, T/C [10]: 43%
viability, T/C [11]: 7.8%
viability, T/C [12]: 3.21%
viability, T/C [13]: 1.48%
viability, T/C (second compound 0.3 µM, first compound 0.00316 µM): 96.6%
viability, T/C (second compound 0.3 µM, first compound 0.01 µM): 73.5%
viability, T/C [14]: 44.7%
viability, T/C [15]: 8.77%
viability, T/C [16]: 3.89%
viability, T/C [17]: 1.15%
viability, T/C (second compound 0.949 µM, first compound 0.00316 µM): 78.4%
viability, T/C (second compound 0.949 µM, first compound 0.01 µM): 89.8%
viability, T/C [18]: 47.4%
viability, T/C [19]: 7.2%
viability, T/C [20]: 4.24%
viability, T/C [21]: 1.63%
viability, T/C (second compound 3 µM, first compound 0.00316 µM): 81.4%
viability, T/C (second compound 3 µM, first compound 0.01 µM): 70%
viability, T/C [22]: 41%
viability, T/C [23]: 7.7%
viability, T/C [24]: 3.98%
viability, T/C [25]: 1.49%

Now from value to compound, other results behind:

IC50 (curve of compound): 20 nM and 21.5 nM and 31.6 nM
Compound: COc1c(OCCCN2CCOCC2)ccc2c3n(c(=NC(=O)c4cnc(N)nc4)nc12)CCN3
viability, T/C (compound 0.00316 µM): 91.3% and 101% and 95.5%
viability, T/C (compound 0.01 µM): 76.7% and 74.9% and 85.9%
viability, T/C (compound 0.0316 µM): 32.1% and 39% and 47.7%
viability, T/C (compound 0.1 µM): 7.79% and 8.14% and 20.2%
viability, T/C (compound 0.316 µM): 3.91% and 3.64% and 6.96%
viability, T/C (compound 1 µM): 1.4% and 1.43% and 2.5%

IC50 [26]: 542 nM
IC50 [27]: 100 nM
IC50 [28]: < 3.16 nM
IC50 [29]: 3.25 nM
IC50 [30]: 901 nM
Compound: CNC(C)C(=O)NC1CN(S(=O)(=O)c2cccc(S(=O)(=O)N3CCC4CCC(C(=O)NC(c5ccccc5)c5ccccc5)N4C(=O)C(NC(=O)C(C)NC)C3)c2)CCC2CCC(C(=O)NC(c3ccccc3)c3ccccc3)N2C1=O (configuration not stated) + Cc1c(S(C)(=O)=O)c(-c2cc(F)cc(N3CCN(c4ccc(NS(=O)(=O)c5ccc(NC(CCN6CCC(C(=O)OCCCP(=O)(O)O)CC6)CSc6ccccc6)c(S(=O)(=O)C(F)(F)F)c5)cc4)CC3)c2)c(-c2ccc(Cl)cc2)n1C(C)C
viability, T/C (second compound 0.1 µM, first compound 0.00316 µM): 75.5%
viability, T/C (second compound 0.1 µM, first compound 0.01 µM): 60.4%
viability, T/C [31]: 62.1%
viability, T/C [32]: 53%
viability, T/C [33]: 56%
viability, T/C [34]: 45.3%
viability, T/C (second compound 0.316 µM, first compound 0.00316 µM): 59.3%
viability, T/C (second compound 0.316 µM, first compound 0.01 µM): 59.7%
viability, T/C [35]: 54.3%
viability, T/C [36]: 42%
viability, T/C [37]: 54.6%
viability, T/C [38]: 41.7%
viability, T/C (second compound 1 µM, first compound 0.00316 µM): 48.9%
viability, T/C (second compound 1 µM, first compound 0.01 µM): 40.8%
viability, T/C [39]: 47.4%
viability, T/C [40]: 48.9%
viability, T/C [41]: 41.6%
viability, T/C [42]: 42.8%
viability, T/C (second compound 3.16 µM, first compound 0.00316 µM): 50.2%
viability, T/C (second compound 3.16 µM, first compound 0.01 µM): 39.1%
viability, T/C [43]: 29.4%
viability, T/C [44]: 30.7%
viability, T/C [45]: 34.5%
viability, T/C [46]: 24.1%
viability, T/C (second compound 10 µM, first compound 0.00316 µM): 85.5%
viability, T/C (second compound 10 µM, first compound 0.01 µM): 81.9%
viability, T/C [47]: 67.5%
viability, T/C [48]: 56.8%
viability, T/C [49]: 45.5%
viability, T/C [50]: 53.5%
